According to patent US7244431B2, “Allergy vaccines and their preparation” (priority 2000, dated 2007):

Experiments:
[1] = test system: IgE antibodies in sera from birch pollen allergic patients; assay: ELISA detection of peptide- and rBet v 1-specific IgE antibodies; type: binding, human
Protocol: Birch pollen allergic patients suffering from allergic rhinoconjunctivitis and/or asthma to birch pollen and related allergens were selected according to case history indicative for seasonal birch pollinosis and characterized by skin prick testing with birch pollen extract and serological CAP RAST (Pharmacia Diagnostics, Uppsala, Sweden) testing. Total IgE levels in the sera were determined by CAP RIST measurements (Pharmacia). […] Sera from 60 birch pollen allergic patients and a non-atopic individual were used for IgE competition studies. The birch pollen allergic patients group consisted of 25 males and 35 females with a mean age of 37 years (ranging from 19-60 years) (Table 2).
Subsequently, plates were incubated with 1:3 diluted sera from 60 birch pollen allergic patients and from a non-atopic individual overnight at 4° C. Bound IgE antibodies were detected with a 1:1000 diluted alkaline-phosphatase-coupled mouse monoclonal anti-human IgE antibody (Pharmingen, San Diego, Calif.).

[2] = test system: birch pollen allergic patients; assay: Skin prick testing of allergic patients; type: in vivo, human; details: 100 μg/ml
Protocol: SPTs were performed on the individuals forearms as described ([…]. et al. (1997) J. Clin Invest. 99, 1673-168; Dreborg S: (1989) J. Am. Acad. DerMatol. 21, 820-821). […] In addition standardized skin prick solutions (birch pollen extract and histamine) (Allergopharma, Reinbek, Germany) were tested. Reactions were recorded 20 minutes after SPT by photography and by transferring the ballpoint pen-surrounded wheal area with a scotch tape to paper.

For “CVDHTNFKYNYSVIEGGPIGDTLEKISNEIK [Peptide P6, Bet v 1-derived synthetic peptide, position aa 75-104, one cysteine added]”, the “IgE (OD)” value ([1]; serum of NHS, non-allergic control individual) was “— (Dashes indicate reactivities below the cut-off level (OD=0.050))”, the “IgE (OD)” value ([1]; serum of patient 1) was “— (Dashes indicate reactivities below the cut-off level (OD=0.050))” and the “IgE (OD)” value ([1]; serum of patient 2) was “— (Dashes indicate reactivities below the cut-off level (OD=0.050))”. For the same sequence, the “IgE (OD)” value ([1]; serum of patient 3) was “— (Dashes indicate reactivities below the cut-off level (OD=0.050))”, the “IgE (OD)” value ([1]; serum of patient 4) was “— (Dashes indicate reactivities below the cut-off level (OD=0.050))” and the “IgE (OD)” value ([1]; serum of patient 5) was “— (Dashes indicate reactivities below the cut-off level (OD=0.050))”. For the same sequence, the “IgE (OD)” value ([1]; serum of patient 6) was “— (Dashes indicate reactivities below the cut-off level (OD=0.050))”, the “IgE (OD)” value ([1]; serum of patient 7) was “— (Dashes indicate reactivities below the cut-off level (OD=0.050))” and the “IgE (OD)” value ([1]; serum of patient 8) was “— (Dashes indicate reactivities below the cut-off level (OD=0.050))”. The “IgE (OD)” value ([1]; serum of patient 9) was “— (Dashes indicate reactivities below the cut-off level (OD=0.050))”, the “IgE (OD)” value ([1]; serum of patient 10) was “— (Dashes indicate reactivities below the cut-off level (OD=0.050))” and the “IgE (OD)” value ([1]; serum of patient 11) was “— (Dashes indicate reactivities below the cut-off level (OD=0.050))”. For the same sequence, the “IgE (OD)” value ([1]; serum of patient 12) was “— (Dashes indicate reactivities below the cut-off level (OD=0.050))”, the “IgE (OD)” value ([1]; serum of patient 13) was “— (Dashes indicate reactivities below the cut-off level (OD=0.050))” and the “IgE (OD)” value ([1]; serum of patient 14) was “— (Dashes indicate reactivities below the cut-off level (OD=0.050))”. The “IgE (OD)” value ([1]; serum of patient 15) was “— (Dashes indicate reactivities below the cut-off level (OD=0.050))”, the “IgE (OD)” value ([1]; serum of patient 16) was “— (Dashes indicate reactivities below the cut-off level (OD=0.050))” and the “IgE (OD)” value ([1]; serum of patient 17) was “— (Dashes indicate reactivities below the cut-off level (OD=0.050))”. The “IgE (OD)” value ([1]; serum of patient 18) was “— (Dashes indicate reactivities below the cut-off level (OD=0.050))”, the “IgE (OD)” value ([1]; serum of patient 19) was “— (Dashes indicate reactivities below the cut-off level (OD=0.050))” and the “IgE (OD)” value ([1]; serum of patient 20) was “— (Dashes indicate reactivities below the cut-off level (OD=0.050))”. For the same sequence, the “IgE (OD)” value ([1]; serum of patient 21) was “— (Dashes indicate reactivities below the cut-off level (OD=0.050))”, the “IgE (OD)” value ([1]; serum of patient 22) was “— (Dashes indicate reactivities below the cut-off level (OD=0.050))” and the “IgE (OD)” value ([1]; serum of patient 23) was “— (Dashes indicate reactivities below the cut-off level (OD=0.050))”. The “IgE (OD)” value ([1]; serum of patient 24) was “— (Dashes indicate reactivities below the cut-off level (OD=0.050))”, the “IgE (OD)” value ([1]; serum of patient 25) was “— (Dashes indicate reactivities below the cut-off level (OD=0.050))” and the “IgE (OD)” value ([1]; serum of patient 26) was “— (Dashes indicate reactivities below the cut-off level (OD=0.050))”. The “IgE (OD)” value ([1]; serum of patient 27) was “— (Dashes indicate reactivities below the cut-off level (OD=0.050))”, the “IgE (OD)” value ([1]; serum of patient 28) was “— (Dashes indicate reactivities below the cut-off level (OD=0.050))” and the “IgE (OD)” value ([1]; serum of patient 29) was “— (Dashes indicate reactivities below the cut-off level (OD=0.050))”. The “IgE (OD)” value ([1]; serum of patient 30) was “— (Dashes indicate reactivities below the cut-off level (OD=0.050))”, the “IgE (OD)” value ([1]; serum of patient 31) was “— (Dashes indicate reactivities below the cut-off level (OD=0.050))” and the “IgE (OD)” value ([1]; serum of patient 32) was “— (Dashes indicate reactivities below the cut-off level (OD=0.050))”. The “IgE (OD)” value ([1]; serum of patient 33) was “— (Dashes indicate reactivities below the cut-off level (OD=0.050))”, the “IgE (OD)” value ([1]; serum of patient 34) was “— (Dashes indicate reactivities below the cut-off level (OD=0.050))” and the “IgE (OD)” value ([1]; serum of patient 35) was “— (Dashes indicate reactivities below the cut-off level (OD=0.050))”. For the same sequence, the “IgE (OD)” value ([1]; serum of patient 36) was “— (Dashes indicate reactivities below the cut-off level (OD=0.050))”, the “IgE (OD)” value ([1]; serum of patient 37) was “— (Dashes indicate reactivities below the cut-off level (OD=0.050))” and the “IgE (OD)” value ([1]; serum of patient 38) was “— (Dashes indicate reactivities below the cut-off level (OD=0.050))”. For the same sequence, the “IgE (OD)” value ([1]; serum of patient 39) was “— (Dashes indicate reactivities below the cut-off level (OD=0.050))”, the “IgE (OD)” value ([1]; serum of patient 40) was “— (Dashes indicate reactivities below the cut-off level (OD=0.050))” and the “IgE (OD)” value ([1]; serum of patient 41) was “— (Dashes indicate reactivities below the cut-off level (OD=0.050))”. For the same sequence, the “IgE (OD)” value ([1]; serum of patient 42) was “— (Dashes indicate reactivities below the cut-off level (OD=0.050))”, the “IgE (OD)” value ([1]; serum of patient 43) was “— (Dashes indicate reactivities below the cut-off level (OD=0.050))” and the “IgE (OD)” value ([1]; serum of patient 44) was “— (Dashes indicate reactivities below the cut-off level (OD=0.050))”. For the same sequence, the “IgE (OD)” value ([1]; serum of patient 45) was “— (Dashes indicate reactivities below the cut-off level (OD=0.050))”, the “IgE (OD)” value ([1]; serum of patient 46) was “— (Dashes indicate reactivities below the cut-off level (OD=0.050))” and the “IgE (OD)” value ([1]; serum of patient 47) was “— (Dashes indicate reactivities below the cut-off level (OD=0.050))”. For the same sequence, the “IgE (OD)” value ([1]; serum of patient 48) was “— (Dashes indicate reactivities below the cut-off level (OD=0.050))”, the “IgE (OD)” value ([1]; serum of patient 49) was “— (Dashes indicate reactivities below the cut-off level (OD=0.050))” and the “IgE (OD)” value ([1]; serum of patient 50) was “— (Dashes indicate reactivities below the cut-off level (OD=0.050))”. For the same sequence, the “IgE (OD)” value ([1]; serum of patient 51) was “— (Dashes indicate reactivities below the cut-off level (OD=0.050))”, the “IgE (OD)” value ([1]; serum of patient 52) was “— (Dashes indicate reactivities below the cut-off level (OD=0.050))” and the “IgE (OD)” value ([1]; serum of patient 53) was “— (Dashes indicate reactivities below the cut-off level (OD=0.050))”. The “IgE (OD)” value ([1]; serum of patient 54) was “— (Dashes indicate reactivities below the cut-off level (OD=0.050))”, the “IgE (OD)” value ([1]; serum of patient 55) was “— (Dashes indicate reactivities below the cut-off level (OD=0.050))” and the “IgE (OD)” value ([1]; serum of patient 56) was “— (Dashes indicate reactivities below the cut-off level (OD=0.050))”. The “IgE (OD)” value ([1]; serum of patient 57) was “— (Dashes indicate reactivities below the cut-off level (OD=0.050))”, the “IgE (OD)” value ([1]; serum of patient 58) was “— (Dashes indicate reactivities below the cut-off level (OD=0.050))” and the “IgE (OD)” value ([1]; serum of patient 59) was “— (Dashes indicate reactivities below the cut-off level (OD=0.050))”. The “IgE (OD)” value ([1]; serum of patient 60) was “— (Dashes indicate reactivities below the cut-off level (OD=0.050))”, the mean wheal diameter ([2]; individual 1) was 0 mm and the mean wheal diameter ([2]; individual 2) was 0 mm. It also gave a mean wheal diameter ([2]; individual 3) of 0 mm, a mean wheal diameter ([2]; individual 4) of 0 mm and a mean wheal diameter ([2]; individual 5) of 0 mm. The mean wheal diameter ([2]; individual 6 (allergic, without birch pollen allergy)) was 0 mm.
